Measurements from patent US10364216B2, “Alkenyl sulfate ester or salt thereof” (Kao Corporation, priority 2013, dated 2019).
Counter-ions that a name gives are not always drawn. Residues, ends and D or L forms follow the SMILES beside them.

Legend:
Assay type in all cases: in vivo, human
[1] = Sweetness adjusting action on sucrose, aspartame, sucralose, glycyrrhizin (simultaneous intake); details: sucrose 7.5 wt %, aspartame 494 ppm, sucralose 0.49 mM, glycyrrhizin 303 ppm, alone or containing 5 mM trans-3-octenyl sulfate, scale 0 to 15; for Sweetness intensity (mean) When drinking water after 30 seconds: 10 mL pure water 30 seconds after sample; for Sweetness intensity (mean) When drinking sample: 10 mL
Method: To seven examiners, four kinds of 10 mL aqueous sucrose standard solutions (2.5, 5.0, 7.5 and 10.0 wt %) were presented. The examiners kept each of the solutions in their mouth for 5 seconds or so, and then spat the solution out, and were asked to consider the sweetness intensity at that time (0 to 15) to be 2.5, 5, 7.5 and 10, respectively. Next, the examiners kept 10 mL aqueous solution (7.5 wt %) of sucrose in their mouth for 5 seconds or so without knowing the kind and the concentration of the sweetener, and then spat the solution out, and compared the sweetness intensity at that time with that of the aqueous sucrose standard solution, and evaluated the sweetness intensity with a number in a range of 0 to 15. In addition, after 30 seconds, the examiners kept 10 mL pure water in their mouth, and then spat the solution out, and compared the sweetness intensity felt at that time with that of the aqueous sucrose standard solution, and evaluated the sweetness intensity in the same manner. Subsequently, the examiners were presented with 10 mL aqueous sucrose solution containing 5 mM trans-3-octenyl sulfate (7.5 wt %), and kept it in their mouth for 5 seconds or so, and then spat the solution out, and compared the sweetness intensity at that time with the sweetness intensity of the aqueous sucrose standard solution, and evaluated the sweetness intensity in the same manner. In addition, immediately after that, the examiners kept 10 mL pure water in their mouth for 5 seconds or so, and then spat the solution out, and compared the sweetness intensity at that time with that of the aqueous sucrose standard solution, and evaluated the sweetness intensity in the same manner. In addition, after 30 seconds, the examiners kept 10 mL pure water in their mouth, and then spat the solution out, and compared the sweetness intensity felt at that time with that of the aqueous sucrose standard solution, and evaluated the sweetness intensity in the same manner.
To seven examiners, 4 kinds of 10 mL aqueous sucrose standard solutions (2.5, 5.0, 7.5 and 10.0 wt %) were presented. The examiners kept each of the solutions in their mouth for 5 seconds or so, and then spat the solution out, and were asked to consider the sweetness intensity at that time (0 to 15) to be 2.5, 5, 7.5 and 10, respectively. Next, the examiners kept 10 mL aqueous solution of aspartame (494 ppm) in their mouth for 5 seconds or so without knowing the kind and the concentration of the sweetener, and then spat the solution out, and compared the sweetness intensity at that time with that of the aqueous sucrose standard solution, and evaluated the sweetness intensity with a number in a range of 0 to 15. The concentration of aspartame was prepared to have the same sweetness intensity as that of the aqueous sucrose solution (7.5 wt %) in accordance with the reference (Schiffman, S. S. et al. Chemical senses, 1999, 24, 439-447.). In addition, after 30 seconds, the examiners kept 10 mL pure water in their mouth, and then spat the solution out, and compared the sweetness intensity felt at that time with that of the aqueous sucrose standard solution, and evaluated the sweetness intensity in the same manner. Subsequently, the examiners were presented with 10 mL aqueous solution of aspartame containing 5 mM trans-3-octenyl sulfate (494 ppm), and kept it in their mouth for 5 seconds or so, and then spat the solution out, and compared the sweetness intensity at that time with the sweetness intensity of the sucrose standard solution, and evaluated the sweetness intensity in the same manner. In addition, after 30 seconds, the examiners kept 10 mL pure water in their mouth, and then spat the solution out, and compared the sweetness intensity felt at that time with that of the aqueous sucrose standard solution, and evaluated the sweetness intensity in the same manner. […]

[2] = Action of reinforcing sweetness (previous intake of trans-3-octenyl sulfate); details: scale 0 to 15, six examiners
Method: To six examiners, 4 kinds of 10 mL aqueous solutions of sucrose standard (2.5, 5.0, 7.5 and 10.0 wt %) were presented. The examiners kept each of the solutions in their mouth for 5 seconds or so, and then spat the solution out, and were asked to consider the sweetness intensity at that time (0 to 15) to be 2.5, 5, 7.5 and 10, respectively. Next, the examiners kept 10 mL aqueous solution of sucralose (0.25 mM) in their mouth for 5 seconds or so without knowing the kind and the concentration of the sweetener, and then spat the solution out, and compared the sweetness intensity at that time with that of the aqueous sucrose standard solution, and evaluated the sweetness intensity with a number in a range of 0 to 15. Subsequently, the examiners kept 10 mL solution of 5 mM trans-3-octenyl sulfate in advance in their mouth for 5 seconds or so in advance, and then spat the solution out, and after passage of 60 seconds, the examiners kept 10 mL aqueous solution of sucralose (0.25 mM) in their mouth for 5 seconds or so, and then spat the solution out, and compared the sweetness intensity at that time with that of the aqueous sucrose standard solution, and evaluated the sweetness intensity with a number in a range of 0 to 15.
To six examiners, 4 kinds of 10 mL aqueous sucrose standard solutions (2.5, 5.0, 7.5 and 10.0 wt %) were presented. The examiners kept each of the solutions in their mouth for 5 seconds or so, and then spat the solution out, and were asked to consider the sweetness intensity at that time (0 to 15) to be 2.5, 5, 7.5 and 10, respectively. Next, the examiners kept 10 mL aqueous solution of glycyrrhizin (0.25 mM) in their mouth for 5 seconds or so without knowing the kind and the concentration of the sweetener, and then spat the solution out, and compared the sweetness intensity at that time with that of the aqueous sucrose standard solution, and evaluated the sweetness intensity with a number in a range of 0 to 15. Subsequently, the examiners kept 10 mL solution of 5 mM trans-3-octenyl sulfate in their mouth for 5 seconds or so in advance, and then spat the solution out, and after passage of 60 seconds, the examiners kept 10 mL aqueous solution of glycyrrhizin (0.25 mM) in their mouth for 5 seconds or so, and then spat the solution out, and compared the sweetness intensity at that time with that of the aqueous sucrose standard solution, and evaluated the sweetness intensity with a number in a range of 0 to 15.

[3] = Evaluation of sweetness (1)/(2): presence or absence of sweetness judged by examiners
Method: Trans-3-octenyl sulfate was dissolved in water to be 1 wt %, which was taken as a test sample. Six examiners kept 50 μL of the prepared test sample in their mouth, and then drunk some water, and judged for presence or absence of sweetness.
Cis-3-octenyl sulfate was dissolved in water to 1 wt %, which was taken as a test sample. Four examiners kept 50 μL of the prepared test sample in their mouth, and then drunk some water, and judged presence or absence of sweetness.

[4] = Evaluation of sweetness (3)/(4): sweetness intensity over time against sucrose standard solutions
Method: (§1) To seven examiners, 4 kinds of 10 mL aqueous sucrose standard solutions (2.5, 5.0, 7.5 and 10.0 wt %) were presented. The examiners kept each of the solutions in their mouth for 5 seconds or so, and then spat the solution out, and were asked to consider the sweetness intensity at that time (0 to 15) to be 2.5, 5, 7.5 and 10, respectively. Next, the examiners kept 10 mL solution of 10 mM trans-3-octenyl sulfate in their mouth for 5 seconds or so, and then spat the solution out, and compared the sweetness intensity at that time with that of the aqueous sucrose standard solution, and evaluated the sweetness intensity with a number in a range of 0 to 15. Then, the examiners kept 10 mL pure water for 5 minutes at an interval of 30 seconds, and then spat the solution out, and evaluated the sweetness intensity at that time in the same manner.
as §1, with “four” for “4”, “cis-3-octenyl” for “trans-3-octenyl”, “water in their mouth” for “water”

[5] = No previous intake of trans-3-octenyl sulfate, 10 mL sweetener 0.25 mM
[6] = Previous intake of 10 mL 5 mM trans-3-octenyl sulfate, 60 seconds before 10 mL sweetener 0.25 mM
[7] = 1 wt % in water, 50 μL kept in mouth, then water (13 ml), six examiners (trans), four examiners (cis)

OC[C@H]1O[C@H](O[C@]2(CCl)O[C@H](CCl)[C@@H](O)[C@@H]2O)[C@H](O)[C@@H](O)[C@H]1Cl [Sucralose, sucralose]
Sweetness intensity (mean) When drinking water after 30 seconds [1]: 0.4
Sweetness intensity (mean) When drinking sample [1]: 8.4
Sweetness intensity (mean) [2, 5]: 7.3
Sweetness intensity (mean) [2, 6]: 10.2

CC1(C)[C@@H](O[C@H]2O[C@H](C(=O)O)[C@@H](O)[C@H](O)[C@H]2O[C@@H]2O[C@H](C(=O)O)[C@@H](O)[C@H](O)[C@H]2O)CC[C@]2(C)[C@H]3C(=O)C=C4[C@@H]5C[C@@](C)(C(=O)O)CC[C@]5(C)CC[C@@]4(C)[C@]3(C)CC[C@@H]12 [Glycyrrhizin, glycyrrhizin]
Sweetness intensity (mean) When drinking water after 30 seconds [1]: 3.2
Sweetness intensity (mean) When drinking sample [1]: 4.1
Sweetness intensity (mean) [2, 5]: 3.4
Sweetness intensity (mean) [2, 6]: 7.3

CCCC/C=C\CCOS(=O)(=O)O [cis-3-octenyl sulfate]
No sweetness felt (number of examiners) [3, 7]: 0
Sweetness felt (number of examiners) [3, 7]: 4
Duration of sweetness ([3]; 1 wt %, 50 μL, then water): the sweetness lasted for a certain time
Examiners who recognized the sweetness by virtue of intake of water ([4]; 10 mL of 10 mM solution, then pure water every 30 seconds): seven out of the seven
Duration of sweetness ([4]; 10 mL of 10 mM solution, then pure water every 30 seconds for 5 minutes): the sweetness lasted for a certain time
Sweetness intensity (mean) ([4]; Time 0 minute, 10 mL of 10 mM solution kept 5 seconds, scale 0 to 15 vs sucrose standards, seven examiners): 0.0
Sweetness intensity (mean) ([4]; Time 0.5 minute, on keeping 10 mL pure water, after 10 mM solution, scale 0 to 15): 1.8
Sweetness intensity (mean) ([4]; Time 1 minute, on keeping 10 mL pure water, after 10 mM solution, scale 0 to 15): 3.2
Sweetness intensity (mean) ([4]; Time 1.5 minute, on keeping 10 mL pure water, after 10 mM solution, scale 0 to 15): 3.4
Sweetness intensity (mean) ([4]; Time 2 minute, on keeping 10 mL pure water, after 10 mM solution, scale 0 to 15): 2.6
Sweetness intensity (mean) ([4]; Time 2.5 minute, on keeping 10 mL pure water, after 10 mM solution, scale 0 to 15): 2.1
Sweetness intensity (mean) ([4]; Time 3 minute, on keeping 10 mL pure water, after 10 mM solution, scale 0 to 15): 1.4
Sweetness intensity (mean) ([4]; Time 3.5 minute, on keeping 10 mL pure water, after 10 mM solution, scale 0 to 15): 1.4
Sweetness intensity (mean) ([4]; Time 4 minute, on keeping 10 mL pure water, after 10 mM solution, scale 0 to 15): 0.9
Sweetness intensity (mean) ([4]; Time 4.5 minute, on keeping 10 mL pure water, after 10 mM solution, scale 0 to 15): 0.5
Sweetness intensity (mean) ([4]; Time 5 minute, on keeping 10 mL pure water, after 10 mM solution, scale 0 to 15): 0.5

OC[C@H]1O[C@@](CO)(O[C@H]2O[C@H](CO)[C@@H](O)[C@H](O)[C@H]2O)[C@@H](O)[C@@H]1O [Sucrose, sucrose]
Sweetness intensity (mean) When drinking water after 30 seconds [1]: 0.1
Sweetness intensity (mean) When drinking sample [1]: 7.1

COC(=O)[C@H](Cc1ccccc1)NC(=O)[C@@H](N)CC(=O)O [Aspartame, aspartame] (H-Asp-Phe-OMe)
Sweetness intensity (mean) When drinking water after 30 seconds [1]: 1.0
Sweetness intensity (mean) When drinking sample [1]: 7.1
